Data as given in PMC11864979, “First-in-class ultralong-target-residence-time p38α inhibitors as a mitosis-targeted therapy for colorectal cancer” (Nature Cancer, 2025).
Several values for one entry are separate records, joined by “and”; a condition that tells them apart may be missing. Equal entries are not always repeated. Where two headings read alike, the source gives them in different places.

Legend:
PDO15 = experiment: cell viability in patient-derived CRC organoids PDO15; format: cell-based, human
Description: (§1) For in vitro treatment studies, organoids were mechanically dissociated and digested using TrypLE supplemented with 100 µg ml^−1 DNaseI and 10.5 µM Y-27632 dihydrochloride (Invitrogen) at 37 °C. A total of 1,000–2,000 single cells were plated per well in white 96-well plates (Greiner) in culture medium containing 10% GFR Matrigel or Cultrex BME. The treatment with doxycycline (5 µg ml^−1), pharmacological inhibitors or corresponding volumes of DMSO was started 24 h after plating. Doxycycline was obtained from Sigma-Aldrich. […] Cell viability was measured by means of CellTiter-Glo 3D or CellTiter-Glo 2.0 reagent (Promega) according to the manufacturers’ instructions and the Infinite M Plex reader (Tecan, i-control version 3.9.1 software). Results were normalized to vehicle (DMSO) or to shNC. For cell-doubling assays, the cell number was quantified at the corresponding time points using Guava EasyCyte flow cytometer (Luminex, CytoSoft v5.2 software).

HT-29 = experiment: cell viability in human CRC cell line HT-29; format: cell-based; conditions: ED Fig. 9h, replicates; for viability at 0.0137 µM / viability at 0.0412 µM / viability at 0.1235 µM / viability at 0.3704 µM / viability at 1.1111 µM / viability at 3.3333 µM / viability at 10 µM: Homo sapiens; for viability at 0.0137 µM: HT-29, read-out: HT-29 Cell viability (%), 0.0137 µM; for viability at 0.0412 µM: HT-29, read-out: HT-29 Cell viability (%), 0.0412 µM; for viability at 0.1235 µM: HT-29, read-out: HT-29 Cell viability (%), 0.1235 µM; for viability at 0.3704 µM: HT-29, read-out: HT-29 Cell viability (%), 0.3704 µM; for viability at 1.1111 µM: HT-29, read-out: HT-29 Cell viability (%), 1.1111 µM; for viability at 3.3333 µM: HT-29, read-out: HT-29 Cell viability (%), 3.3333 µM; for viability at 10 µM: HT-29, read-out: HT-29 Cell viability (%), 10.0000 µM
Description: To generate KAP^2D cells, KAP organoids were isolated from Matrigel, fragmented by mechanical dissociation and plated without any extracellular matrix on common cell culture dishes. Phoenix-Eco packaging cells (CRL-3214), HCT-15 (CCL-225), HCT 116 (CCL-247), COLO 205 (CCL-222), LS 174T (CL-188), RKO (CRL-2577) and HT-29 (HTB-38) were obtained from the American Type Culture Collection. The cells were cultured at 37 °C and 7% CO2 with RPMI (KAP^2D cells) or DMEM (other cell lines), supplemented with 10% FBS and penicillin–streptomycin. KAP^2D cells were authenticated using PCR (Kras locus and Trp53 locus). Phoenix-Eco packaging cells and HCT-15, HCT 116, COLO 205, LS 174T, RKO and HT-29 cells were authenticated by the provider using short tandem repeat profiling. No commonly misidentified cell lines were used. Mycoplasma contamination was excluded by a PCR-based analysis.
as §1

KAP liver metastasis = experiment: survival of wild-type mice with KAP liver metastasis; format: in vivo, mouse; conditions: single animals; 1 = event, 0 = censored; Fig. 6e
Description: Subcutaneous injection, splenic seeding or cecum injection of organoids was performed in 8–10-week-old C57BL/6 N/Crl, Rag2^−/− (B6.Cg-Rag2^tm1.1Cgn/J), or CB17 Scid beige (CB17.Cg-Prkdc^scidLyst^bg-J/Crl) mice, obtained from Charles River. The organoids were dissociated into single cells, washed with PBS and injected in a 1:1 mixture of PBS and Matrigel. For murine organoids, 1 × 10^5 cells were injected into the left and right flanks or the spleen capsule and 2 × 10^6 cells were injected into the cecum wall. For human organoids, 4 × 10^5 cells were injected into the flanks of CB17 Scid beige mice. For splenic seeding and cecum injection, mice were anaesthetized using ketamine (100 mg kg^−1, intraperitoneally) and xylazin (10 mg/kg, intraperitoneally) in NaCl and a small laparotomy below the thorax was performed.
No mice were excluded during treatment studies.

For O=C1c2ccc(Nc3ccc(F)cc3F)cc2CCc2ccc(OC[C@H](O)CO)cc21 [SKL, skepinone-L, reference compound], the viability at 0.5 µM (PDO15; Homo sapiens, 96 h, read-out: Cell viability (%), PDO15, 0.5 µM, 4 d) was 98%, the viability at 1 µM (PDO15; Homo sapiens, 96 h, read-out: Cell viability (%), PDO15, 1 µM, 4 days) was 106% and the “Cell viability (%)” value (PDO15; PDO15, 0.5 µM, 4 d, 0.5 µM) was 99.16% and 105.27%. For the same molecule, the “Cell viability (%)” value (PDO15; PDO15, 1 µM, 4 days, 1 µM) was 107.85% and 101.84%, the “HT-29 Cell viability (%)” value (HT-29; 0.0137 µM, Repetition) was 103.68% and 103.86% and the “HT-29 Cell viability (%)” value (HT-29; 0.0137 µM, first experiment) was 94.50% and 93.43%. The “HT-29 Cell viability (%)” value (HT-29; 0.0412 µM, Repetition) was 99.67% and 99.85%, the “HT-29 Cell viability (%)” value (HT-29; 0.0412 µM, first experiment) was 92.23% and 89.57% and the “HT-29 Cell viability (%)” value (HT-29; 0.1235 µM, Repetition) was 103.93% and 105.17%. For the same molecule, the “HT-29 Cell viability (%)” value (HT-29; 0.1235 µM, first experiment) was 89.62% and 88.59%, the “HT-29 Cell viability (%)” value (HT-29; 0.3704 µM, Repetition) was 102.88% and 105.26% and the “HT-29 Cell viability (%)” value (HT-29; 0.3704 µM, first experiment) was 92.54% and 90.50%. For the same molecule, the “HT-29 Cell viability (%)” value (HT-29; 1.1111 µM, Repetition) was 104.46% and 106.93%, the “HT-29 Cell viability (%)” value (HT-29; 1.1111 µM, first experiment) was 97.34% and 97.79% and the “HT-29 Cell viability (%)” value (HT-29; 3.3333 µM, Repetition) was 100.17% and 95.98%. The “HT-29 Cell viability (%)” value (HT-29; 3.3333 µM, first experiment) was 98.14% and 94.12%, the “HT-29 Cell viability (%)” value (HT-29; 10.0000 µM, Repetition) was 26.97% and 25.38% and the “HT-29 Cell viability (%)” value (HT-29; 10.0000 µM, first experiment) was 26.95% and 26.30%. It also gave a viability at 0.0137 µM (HT-29; Repetition) of 95.8%, a viability at 0.0137 µM (HT-29; first experiment) of 95.5% and a viability at 0.0412 µM (HT-29; Repetition) of 92.3%. It also gave a viability at 0.0412 µM (HT-29; first experiment) of 93.7%, a viability at 0.1235 µM (HT-29; Repetition) of 91.3% and a viability at 0.1235 µM (HT-29; first experiment) of 91.8%. It also gave a viability at 0.3704 µM (HT-29; Repetition) of 97.9%, a viability at 0.3704 µM (HT-29; first experiment) of 92.5% and a viability at 1.1111 µM (HT-29; Repetition) of 99.2%. The viability at 1.1111 µM (HT-29; first experiment) was 99.6%, the viability at 3.3333 µM (HT-29; Repetition) was 93.3% and the viability at 3.3333 µM (HT-29; first experiment) was 95.6%. The viability at 10 µM (HT-29; Repetition) was 28.2%, the viability at 10 µM (HT-29; first experiment) was 25.2% and the Survival (KAP liver metastasis) was 15 d of treatment and 16 d of treatment and 18 d of treatment and 26 d of treatment and 28 d of treatment and 11 d of treatment.
